# Measured values from ChEMBL document CHEMBL3885881, “DrugMatrix”.
# Organism: Rattus norvegicus
# Experiment: DrugMatrix - Regimen: Daily Repeat
# Type: toxicity, organism-based, Sprague-Dawley
# Parameters: regimen Daily Repeat, gender Male, age 6-8 weeks
# Details: in vivo, po, route oral GAVAGE, vehicle .5 % CMC; for ABSOLUTE BASOPHIL / ABSOLUTE EOSINOPHIL / ABSOLUTE LYMPHOCYTE / ABSOLUTE MONOCYTE / ABSOLUTE SEGMENTED NEUTROPHIL / BASOPHIL / EOSINOPHIL / ERYTHROCYTE COUNT / HEMATOCRIT / HEMOGLOBIN / LEUKOCYTE COUNT / LYMPHOCYTE / MEAN CORPUSCULAR HEMOGLOBIN / MEAN CORPUSCULAR HEMOGLOBIN CONCENTRATION / MEAN CORPUSCULAR VOLUME / MONOCYTE / NEUTROPHIL / NUCLEATED RED BLOOD CELLS / PLATELET COUNT: tissue Blood; for ALANINE AMINOTRANSFERASE / ALBUMIN / ALKALINE PHOSPHATASE / ASPARTATE AMINOTRANSFERASE / BLOOD UREA NITROGEN / CARBON DIOXIDE / CHLORIDE / CHOLESTEROL / CREATINE PHOSPHOKINASE / CREATININE / GLUCOSE / LACTATE DEHYDROGENASE / LIPASE / PHOSPHORUS / POTASSIUM / SODIUM / TOTAL BILIRUBIN / TOTAL PROTEIN / URIC ACID: tissue Plasma
# [1] = 75 mg/kg, 72 h, dose level Low, time 3 day
# [2] = 75 mg/kg, 120 h, dose level Low, time 5 day
# [3] = 750 mg/kg, 72 h, dose level High, time 3 day
# [4] = 750 mg/kg, 120 h, dose level High, time 5 day
smiles,measurement,setting,value
CC(=O)OC[C@H]1O[C@@H](n2ncc(=O)[nH]c2=O)[C@H](OC(C)=O)[C@@H]1OC(C)=O [AZARIBINE],ABSOLUTE BASOPHIL,[1],0 CELLS/uL
same,ABSOLUTE EOSINOPHIL,[1],0 CELLS/uL
same,ABSOLUTE LYMPHOCYTE,[1],12537.67 CELLS/uL
same,ABSOLUTE MONOCYTE,[1],196 CELLS/uL
same,ABSOLUTE SEGMENTED NEUTROPHIL,[1],1699.67 CELLS/uL
same,BASOPHIL,[1],0%
same,EOSINOPHIL,[1],0%
same,ERYTHROCYTE COUNT,[1],5.31 x10E6/uL
same,HEMATOCRIT,[1],32.6%
same,HEMOGLOBIN,[1],12.37 G/DL
same,LEUKOCYTE COUNT,[1],14.43 x10E3/uL
same,LYMPHOCYTE,[1],87%
same,MEAN CORPUSCULAR HEMOGLOBIN,[1],23.3 pg
same,MEAN CORPUSCULAR HEMOGLOBIN CONCENTRATION,[1],37.93 G/DL
same,MEAN CORPUSCULAR VOLUME,[1],61.4 fL
same,MONOCYTE,[1],1.33%
same,NEUTROPHIL,[1],11.67%
same,NUCLEATED RED BLOOD CELLS,[1],0 /100WBC
same,PLATELET COUNT,[1],1235.33 x10E3/uL
same,ALANINE AMINOTRANSFERASE,[1],37 u/L
same,ALBUMIN,[1],4.13 G/DL
same,ALKALINE PHOSPHATASE,[1],384.67 u/L
same,ASPARTATE AMINOTRANSFERASE,[1],74.67 u/L
same,BLOOD UREA NITROGEN,[1],16.33 mg/dL
same,CARBON DIOXIDE,[1],24.33 mmol/L
same,CHLORIDE,[1],100.67 MEQ/L
same,CHOLESTEROL,[1],73 mg/dL
same,CREATINE PHOSPHOKINASE,[1],254.33 u/L
same,CREATININE,[1],0.25 mg/dL
same,GLUCOSE,[1],157.67 mg/dL
same,LACTATE DEHYDROGENASE,[1],151 u/L
same,LIPASE,[1],10.33 u/L
same,PHOSPHORUS,[1],12.53 mg/dL
same,POTASSIUM,[1],5.81 MEQ/L
same,SODIUM,[1],141.13 MEQ/L
same,TOTAL BILIRUBIN,[1],0.17 mg/dL
same,TOTAL PROTEIN,[1],6.2 G/DL
same,URIC ACID,[1],1.1 mg/dL
same,ABSOLUTE BASOPHIL,[2],0 CELLS/uL
same,ABSOLUTE EOSINOPHIL,[2],42.67 CELLS/uL
same,ABSOLUTE LYMPHOCYTE,[2],10939.33 CELLS/uL
same,ABSOLUTE MONOCYTE,[2],627 CELLS/uL
same,ABSOLUTE SEGMENTED NEUTROPHIL,[2],1691 CELLS/uL
same,BASOPHIL,[2],0%
same,EOSINOPHIL,[2],0.33%
same,ERYTHROCYTE COUNT,[2],5.34 x10E6/uL
same,HEMATOCRIT,[2],32.93%
same,HEMOGLOBIN,[2],12.57 G/DL
same,LEUKOCYTE COUNT,[2],13.3 x10E3/uL
same,LYMPHOCYTE,[2],82.33%
same,MEAN CORPUSCULAR HEMOGLOBIN,[2],23.53 pg
same,MEAN CORPUSCULAR HEMOGLOBIN CONCENTRATION,[2],38.17 G/DL
same,MEAN CORPUSCULAR VOLUME,[2],61.67 fL
same,MONOCYTE,[2],4.67%
same,NEUTROPHIL,[2],12.67%
same,NUCLEATED RED BLOOD CELLS,[2],0 /100WBC
same,PLATELET COUNT,[2],932 x10E3/uL
same,ALANINE AMINOTRANSFERASE,[2],43.33 u/L
same,ALBUMIN,[2],3.93 G/DL
same,ALKALINE PHOSPHATASE,[2],273 u/L
same,ASPARTATE AMINOTRANSFERASE,[2],76 u/L
same,BLOOD UREA NITROGEN,[2],16.67 mg/dL
same,CARBON DIOXIDE,[2],33 mmol/L
same,CHLORIDE,[2],95.33 MEQ/L
same,CHOLESTEROL,[2],74 mg/dL
same,CREATINE PHOSPHOKINASE,[2],309 u/L
same,CREATININE,[2],0.2 mg/dL
same,GLUCOSE,[2],150 mg/dL
same,LACTATE DEHYDROGENASE,[2],226 u/L
same,LIPASE,[2],10.33 u/L
same,PHOSPHORUS,[2],12.03 mg/dL
same,POTASSIUM,[2],6.04 MEQ/L
same,SODIUM,[2],140.6 MEQ/L
same,TOTAL BILIRUBIN,[2],0.1 mg/dL
same,TOTAL PROTEIN,[2],5.93 G/DL
same,URIC ACID,[2],1.33 mg/dL
same,ABSOLUTE BASOPHIL,[3],0 CELLS/uL
same,ABSOLUTE EOSINOPHIL,[3],37.33 CELLS/uL
same,ABSOLUTE LYMPHOCYTE,[3],11597.33 CELLS/uL
same,ABSOLUTE MONOCYTE,[3],87.33 CELLS/uL
same,ABSOLUTE SEGMENTED NEUTROPHIL,[3],844.67 CELLS/uL
same,BASOPHIL,[3],0%
same,EOSINOPHIL,[3],0.33%
same,ERYTHROCYTE COUNT,[3],4.98 x10E6/uL
same,HEMATOCRIT,[3],31.27%
same,HEMOGLOBIN,[3],11.73 G/DL
same,LEUKOCYTE COUNT,[3],12.57 x10E3/uL
same,LYMPHOCYTE,[3],92%
same,MEAN CORPUSCULAR HEMOGLOBIN,[3],23.63 pg
same,MEAN CORPUSCULAR HEMOGLOBIN CONCENTRATION,[3],37.53 G/DL
same,MEAN CORPUSCULAR VOLUME,[3],62.9 fL
same,MONOCYTE,[3],0.67%
same,NEUTROPHIL,[3],7%
same,NUCLEATED RED BLOOD CELLS,[3],0 /100WBC
same,PLATELET COUNT,[3],1125.67 x10E3/uL
same,ALANINE AMINOTRANSFERASE,[3],29 u/L
same,ALBUMIN,[3],4.23 G/DL
same,ALKALINE PHOSPHATASE,[3],344 u/L
same,ASPARTATE AMINOTRANSFERASE,[3],95.33 u/L
same,BLOOD UREA NITROGEN,[3],18 mg/dL
same,CARBON DIOXIDE,[3],25.67 mmol/L
same,CHLORIDE,[3],101 MEQ/L
same,CHOLESTEROL,[3],66 mg/dL
same,CREATINE PHOSPHOKINASE,[3],781.33 u/L
same,CREATININE,[3],0.22 mg/dL
same,GLUCOSE,[3],147.33 mg/dL
same,LACTATE DEHYDROGENASE,[3],248.33 u/L
same,LIPASE,[3],10.33 u/L
same,PHOSPHORUS,[3],12.2 mg/dL
same,POTASSIUM,[3],5.97 MEQ/L
same,SODIUM,[3],141.5 MEQ/L
same,TOTAL BILIRUBIN,[3],0.2 mg/dL
same,TOTAL PROTEIN,[3],6.1 G/DL
same,URIC ACID,[3],1.43 mg/dL
same,ABSOLUTE BASOPHIL,[4],0 CELLS/uL
same,ABSOLUTE EOSINOPHIL,[4],49.33 CELLS/uL
same,ABSOLUTE LYMPHOCYTE,[4],12972.67 CELLS/uL
same,ABSOLUTE MONOCYTE,[4],95.67 CELLS/uL
same,ABSOLUTE SEGMENTED NEUTROPHIL,[4],649 CELLS/uL
same,BASOPHIL,[4],0%
same,EOSINOPHIL,[4],0.33%
same,ERYTHROCYTE COUNT,[4],5 x10E6/uL
same,HEMATOCRIT,[4],29.63%
same,HEMOGLOBIN,[4],11.47 G/DL
same,LEUKOCYTE COUNT,[4],13.77 x10E3/uL
same,LYMPHOCYTE,[4],94.33%
same,MEAN CORPUSCULAR HEMOGLOBIN,[4],22.93 pg
same,MEAN CORPUSCULAR HEMOGLOBIN CONCENTRATION,[4],38.7 G/DL
same,MEAN CORPUSCULAR VOLUME,[4],59.27 fL
same,MONOCYTE,[4],0.67%
same,NEUTROPHIL,[4],4.67%
same,NUCLEATED RED BLOOD CELLS,[4],0 /100WBC
same,PLATELET COUNT,[4],1279 x10E3/uL
same,ALANINE AMINOTRANSFERASE,[4],26.67 u/L
same,ALBUMIN,[4],4.07 G/DL
same,ALKALINE PHOSPHATASE,[4],306.67 u/L
same,ASPARTATE AMINOTRANSFERASE,[4],81.33 u/L
same,BLOOD UREA NITROGEN,[4],15.33 mg/dL
same,CARBON DIOXIDE,[4],30.33 mmol/L
same,CHLORIDE,[4],98.67 MEQ/L
same,CHOLESTEROL,[4],73.67 mg/dL
same,CREATINE PHOSPHOKINASE,[4],266 u/L
same,CREATININE,[4],0.22 mg/dL
same,GLUCOSE,[4],135.67 mg/dL
same,LACTATE DEHYDROGENASE,[4],347 u/L
same,LIPASE,[4],10 u/L
same,PHOSPHORUS,[4],11.07 mg/dL
same,POTASSIUM,[4],6.41 MEQ/L
same,SODIUM,[4],142.17 MEQ/L
same,TOTAL BILIRUBIN,[4],0.1 mg/dL
same,TOTAL PROTEIN,[4],6 G/DL
same,URIC ACID,[4],1.37 mg/dL
